From patent US20130116274A1 (RUTGERS, THE STATE UNIVERSITY OF NEW JERSEY, priority 2011, published 2013)

Experiments:
[1] = test system: C8161 human melanoma xenografts; assay: C8161 xenografts in immunodeficient nude mice; format: in vivo; conditions: riluzole 10 mg/kg
Protocol: (§1) The Institutional Review Board approved all animal studies for the Animal Care and Facilities Committee of Rutgers University. Nude mice were purchased from Taconic (Hudson, N.Y.). Cells were injected into 2 dorsal sites of each mouse at 10^6 cells per site. Tumor size was measured twice a week with a Vernier caliper and calculated as described. Once tumor volumes reached 6-10 mm^3, mice were divided into no treatment and treatment groups. […] The experiments were terminated when the xenografts in the no treatment group reached the maximum permitted size.
C8161 human melanoma cells were inoculated into the dorsal flanks of immunodeficient nude mice. 10^6 cells were inoculated into each dorsal flank of 5-6 week-old mice. When the tumors reached tumor volumes of ˜10 mm^3, the mice were randomly divided in 5 groups with similar tumor volumes. The mice were then treated by oral gavage daily, except for […] treatment, which was administered three times a week. […] Tumor volumes were determined once a week with a vernier caliper and the experiment was terminated when tumor burden in the control animals reached maximum permitted levels.

[2] = test system: SKMEL 28 human melanoma cells; assay: MTT cell viability assay, SKMEL 28; format: cell-based; conditions: single agent 10 μM, FIG. 5A
Protocol: (§6) MTT cell viability assays were performed as known in the art. C8161, UACC903, 1205Lu, SKMEL 187 and A2058 melanoma cell lines were used in the MTT assays. […] Viable cells were measured every day for 4 or 7 days. Absorbance was determined using a Tecan plate reader (Infinite 200 Tecan USA, Durham, N.C.) at 570 nm everyday for up to 7 days.

[3] = test system: C8161 human melanoma xenografts; assay: Immunohistochemistry on excised C8161 xenografts (riluzole/MK2206 study); format: in vivo, mice; conditions: riluzole 10 mg/kg; for cleaved Caspase-3-positive (apoptotic) cells: MK2206 30 mg/kg, or riluzole 5 mg/kg + MK2206 15 mg/kg, combination p<0.001 vs single agent
From the text: (§2) Tissue Analytical Services at the Cancer Institute of New Jersey performed immunohistochemical staining on excised tumor xenografts to detect changes in the number of apoptotic and proliferating cells (activated Caspase 3 and Ki-67, respectively). The number of stained cells was quantified with a Digital Aperio ScanScopeGL system and ImageScope software (v 10.1.3.2028) (Aperio Technologies Inc., Vista, Calif.) according to the manufacturer's protocol.
Excised tumor samples were subjected to immunohistochemistry evaluation with the apoptosis marker, cleaved Caspase-3, and the proliferation index marker, Ki-67.

[4] = test system: AKT phosphorylation; assay: Western immunoblot, phosphorylated AKT; format: cell-based; conditions: three human melanoma cell lines (C8161, UACC903, SKMEL 28)
Protocol: (§3) Protein lysates were prepared as commonly known in the art. Briefly, media was removed and cells were washed once with ice-cold phosphate buffered saline (PBS). After removal of PBS, the extraction buffer was added directly to the plates and cells were collected with a cell scraper. Cells were incubated on ice for 20 minutes. Cell debris was removed by centrifugation at 25,000×g at 4° C. for 20 minutes and supernatant taken for Western immunoblot analysis. Western Blotting was carried out with anti-PARP, anti-cleaved PARP, anti-phospho ERK, anti-total ERK, anti-a-tubulin antibodies, anti AKT and anti-Phospho AKT-S473.

[5] = test system: C8161 melanoma cells; assay: MTT cell viability assay, C8161; conditions: for cell proliferation and viability (number of viable cells): single agent, seven days, FIG. 1A
Protocol: as §6

[6] = test system: UACC903 melanoma cells; assay: MTT cell viability assay, UACC903; format: cell-based, human; conditions: for cell proliferation and viability (number of viable cells): single agent, seven days
Protocol: as §6

[7] = test system: Mcl-1; assay: Western immunoblot, Mcl-1 levels; format: cell-based, human; conditions: C8161, UACC903 and 1205Lu cells
[8] = test system: UACC903 human melanoma xenografts; assay: UACC903 xenografts in immunodeficient nude mice; format: in vivo
Protocol: as §1
(§4) Briefly, UACC903 cells were injected into the dorsal flanks of nude mice. Tumors were allowed to grow to approximately 6-10 mm^3 and mice were divided into groups to obtain relatively constant tumor volumes between each group (12 mice per group).

[9] = test system: ERK phosphorylation; assay: Western immunoblot, ERK phosphorylation; format: cell-based, human; conditions: C8161, UACC903 and 1205Lu cells; harvested xenografts showed similar results
Protocol: as §3

[10] = test system: 1205Lu melanoma cells; assay: Cell cycle analysis (propidium iodide flow cytometry), 1205Lu; format: cell-based, human; conditions: riluzole 10 μM, 24 hours post-treatment
Protocol: as §6

[11] = test system: A2058 melanoma cells; assay: Cell cycle analysis (propidium iodide flow cytometry), A2058; format: cell-based, human; conditions: riluzole 10 μM, 24 hours post-treatment
Protocol: as §6

[12] = test system: SKMEL 187 melanoma cells; assay: MTT cell viability assay, SKMEL 187; format: cell-based, human; conditions: riluzole 25 μM or 50 μM vs no treatment or vehicle (DMSO)
Protocol: as §6

[13] = test system: A2058 melanoma cells; assay: MTT cell viability assay, A2058; format: cell-based, human; conditions: riluzole 25 μM or 50 μM vs no treatment or vehicle (DMSO)
Protocol: as §6

[14] = test system: advanced melanoma; conditions: cited from earlier work
[15] = test system: cleaved form of PARP; assay: Western analysis, cleaved PARP; format: cell-based, human; conditions: riluzole 10 μM; UACC903, 1205Lu, A2058 cells; 24 and 48 hours
Protocol: as §3, §4

[16] = test system: UACC903 human melanoma cell line; assay: Three dimensional anchorage independent colony assay, UACC903; format: cell-based; conditions: riluzole 10 μM, sorafenib 5 μM or both; 14 days; FIG. 2
Protocol: (§5) The cells were suspended in 0.35% agar in RPMI supplemented with 10% FBS and plated on a layer of 0.75% agar in the same medium in 12-well culture plates (1−1.5×10^4 cells/well). […] Every other day, the vehicle, or drug(s) was again added with 250 μl of complete medium. After 14 days, the colonies were stained with iodonitrotetrazolium chloride (Sigma) and photographed. The numbers of colonies were counted using Image J software. Quantitation was performed by comparing the total number of colonies from three representative photomicrographs from each experiment. The histograms represent the average of three independent experiments.

[17] = test system: 1205Lu melanoma cells; assay: MTT cell viability assay, 1205Lu; format: cell-based, human; conditions: for cell proliferation and viability (number of viable cells): single agent, seven days, FIG. 1C
Protocol: as §6

[18] = test system: SKMEL2 human melanoma cell line; assay: Three dimensional anchorage independent colony assay, SKMEL2; format: cell-based; conditions: riluzole 10 μM, sorafenib 5 μM or both; 14 days; vs control group; FIG. 2
Protocol: as §5

[19] = test system: C8161 human melanoma cell line; assay: Three dimensional anchorage independent colony assay, C8161; format: cell-based; conditions: riluzole 10 μM, sorafenib 5 μM or both; 14 days; FIG. 2
Protocol: as §5

[20] = test system: UACC903 melanoma cells; assay: Cell cycle analysis (propidium iodide flow cytometry), UACC903; format: cell-based, human; conditions: riluzole 10 μM, 24 hours post-treatment
Protocol: as §6

[21] = test system: excised tumor xenografts; assay: Immunohistochemistry on excised xenografts (riluzole/sorafenib study); format: in vivo, mice; conditions: for number of Ki-67 positive cells: Ki-67 immunohistochemistry; for number of positive Caspase 3 cells vs controls: cleaved Caspase 3 immunohistochemistry
From the text: as §2
Additionally, immunohistochemical analyses were performed on excised xenografts using antibodies against the cleaved form of Caspase 3 to detect apoptotic cell death, and Ki-67 to detect changes in cell proliferation.

[22] = test system: melanoma; conditions: Phase II; cited from earlier work
[23] = test system: 1205Lu human melanoma cell line; assay: Three dimensional anchorage independent colony assay, 1205Lu; format: cell-based; conditions: riluzole 10 μM, sorafenib 5 μM or both; 14 days; FIG. 2
Protocol: as §5

[24] = test system: 1205Lu human melanoma xenografts; assay: 1205Lu xenografts in immunodeficient nude mice; format: in vivo; conditions: riluzole 10 mg/kg, sorafenib 24 mg/kg, or riluzole 5 mg/kg + sorafenib 12 mg/kg daily oral gavage; FIG. 3C
Protocol: as §1

[25] = riluzole 25 μM or 50 μM vs no treatment or vehicle (DMSO)

SMILES | cleaved Caspase-3-positive (apoptotic) cells [3] | AKT phosphorylation [4] | Mcl-1 levels [7] | ERK phosphorylation [9] | reduction in the number of colonies [16] | cell proliferation and viability (number of viable cells) [17] | decrease in colony formation [18] | decrease in colony formation [19] | cell proliferation and viability (number of viable cells) [5] | number of Ki-67 positive cells [21] | number of positive Caspase 3 cells vs controls [21] | cell proliferation and viability (number of viable cells) ([6]; FIG. 1B) | reduction in colony formation [23] [%] | also measured
NC1(c2ccc(-c3nc4ccn5c(=O)[nH]nc5c4cc3-c3ccccc3)cc2)CCC1 [MK2206] | significant increase in apoptotic cells | suppress AKT phosphorylation |  |  |  |  |  |  |  |  |  |  |  | tumor volume / xenograft growth ([1]; MK2206 30 mg/kg, or riluzole 5 mg/kg + MK2206 15 mg/kg, oral gavage, FIG. 6, combination p<0.005 vs NT or vehicle): suppress the growth of the melanoma xenografts; cell proliferation [2]: suppress cell proliferation; number of Ki-67 positive cells ([3]; MK2206 30 mg/kg, or combination at half the dose of each (p<0.001)): decrease in the number of Ki-67 positive cells; cell proliferation ([5]; single agent 10 μM, FIG. 5A): suppress cell proliferation; cell proliferation ([6]; single agent 10 μM, FIG. 5A): suppress cell proliferation
CCCS(=O)(=O)Nc1ccc(F)c(C(=O)c2c[nH]c3ncc(Cl)cc23)c1F [PLX4720] |  |  | does not down regulate the levels of Mcl-1 | only found to suppress ERK activity in the B-RAF^V600E cell line UACC903 |  |  |  |  |  |  |  |  |  | tumor progression ([8]; riluzole 10 mg/kg, PLX4720 20 mg/kg, or riluzole 5 mg/kg + PLX4720 10 mg/kg, FIG. 3D): not as potent as riluzole; inhibition in cell proliferation ([5]; PLX4720 10 uM): only slight inhibition in cell proliferation; IC50 ([6]; Homo sapiens, UACC-903, UACC903 cells, MTT, FIG. 1B): 100 nM
Nc1nc2ccc(OC(F)(F)F)cc2s1 [riluzole] | significant increase in apoptotic cells | suppress AKT phosphorylation |  | decrease in levels of ERK phosphorylation in a cell line-dependent manner | very little inhibitory activity | not as sensitive to riluzole | 18% | 40% | greatest reduction in the number of viable cells | reduced | substantial increase in the number of positive Caspase 3 cells | not as sensitive to riluzole | 30 | cells accumulating in the G2/M phase [10]: about half; cells accumulating in the G2/M phase [11]: about half; number of viable cells [12]: significantly decreased the number of viable cells; number of viable cells [13]: significantly decreased the number of viable cells; patients showing measurable clinical responses ([14]; Phase 0, patients with advanced melanoma given riluzole): 34%; decrease in tumor size ([14]; Phase 0, some tumors): over 90%; cleaved form of PARP [15]: increase in the cleaved form of PARP; number of viable cells [17, 25]: significantly decreased the number of viable cells; tumor size vs controls ([8]; single agent riluzole daily by oral gavage, day 18, 12 mice per group): substantial difference between the tumor sizes; cells accumulating in the G2/M phase [20]: about half; number of viable cells [5, 25]: significantly decreased the number of viable cells; RECIST criteria responses [22]: no RECIST criteria responses; patients exhibiting stable disease [22]: 42%; number of viable cells [6, 25]: significantly decreased the number of viable cells
CNC(=O)c1cc(Oc2ccc(NC(=O)Nc3ccc(Cl)c(C(F)(F)F)c3)cc2)ccn1 [sorafenib] |  |  | reduction in Mcl-1 levels was detected in sorafenib-treated UACC903 and 1205 LU cells | more highly suppress ERK phosphorylation in UACC903 and 1205Lu cells than in C8161 cells | 45% | substantial decrease in the number of viable cells | more efficacious at decreasing colony formation | little effect | not very effective in suppressing C8161 cell growth | reduced | substantial increase in the number of positive Caspase 3 cells | substantial decrease in the number of viable cells | 30 | tumor volume response compared to UACC903 xenografts [24]: more sensitive; tumor volume ([1]; sorafenib 24 mg/kg, or riluzole 5 mg/kg + sorafenib 12 mg/kg daily oral gavage, FIG. 3A, p<0.001 for riluzole and combination vs NT or Veh): did not yield a significant decrease in tumor size; tumor volume ([8]; riluzole 10 mg/kg, sorafenib 24 mg/kg, or riluzole 5 mg/kg + sorafenib 12 mg/kg daily oral gavage, FIG. 3B, p<0.01 single agents day 18, p<0.001 combination): statistically relevant responses
